Results reported in patent US20200010413A1, “Benzoquinone derivatives for treatment of cancer and methods of making the benzoquinone derivatives” (United Arab Emirates University, priority 2016, published 2020).
pIC50: −log10 of the molar value.

Tests used:
ct-DNA (calf thymus DNA) = test: Melting temperature curves by CD, ct-DNA-BQs complexes; assay type: binding; details: Tris-KCl buffer pH 7.4
Description: Calf thymus ds-DNA (1000 μg/ml; 8×10^−8 M) was prepared by dissolving 10.0 mg of DNA into 10.0 ml Tris-KCl buffer, pH 7.4, without sonication or stirring. To prevent shearing of the large genomic DNA, the solution was gently inverted overnight at 4.0° C. to completely solubilize the DNA. Solutions of DNA are stable for several months at 4.0° C. in Tris-KCl buffer pH 7-8.
(§1) Melting temperature curves for telomere G-quadruplex, ct-DNA and their BQs' adducts were constructed using CD spectral measurements. A 1.0 ml telomeric G-quadruplex (3.93×10^−6 M) or ct-DNA (100.00 ppm) in Tris-KCl-buffer, pH 7.4 was heated in the range 25-95° C. applying 2.0-5.0° C. increments and using 5 min incubation time intervals. The CD spectra in the range 200-400 nm were recorded at each temperature using the scan parameters described in previous section. BQs complexes with G-quadruplex or ct-DNA were prepared by mixing equimolar amounts of G-quadruplex (1.44×10^−4 M) with BQs (1×10^−4 M) or ct-DNA (1000 ppm) with BQs (1×10^−4 M) solution in 1.0 ml KCl-buffer pH 7.4. Solutions were incubated for 30 min before scan.
Collected CD spectra were smoothed and baseline corrected against blank solution. Intensities of CD peaks for G-quadruplex, ct-DNA and their BQs' complexes at 293 and 282 nm were recorded. Plots of CD intensities versus temperature were constructed.

[1] = system: telomeric G-quadruplex DNA AGGG(TTAGGG)3; test: UV-Vis absorption titration, Scatchard plot and molar ratio method; assay type: binding, human; details: Scatchard plot of UV-Vis titration, Tris-KCl buffer pH 7.4
Description: Telomeric G-quadruplex DNA was prepared by heating gently 2.0 ml of stock single stranded 5′-[…]-3′ DNA (SEQ ID NO: 1) up to 95.0° C. Resultant solution was incubated at 95.0° C. for 10 min. The solution was left to cool gently down to room temperature, then kept in fridge at 4.0° C. overnight before use. A 10^−5 M fluorescein labeled G-quadruplex DNA was prepared similarly using 5′-Flu-telomeric DNA.
Successive amounts of G-quadruplex DNA (AGGG(TTAGGG)3, 1.44×10^−4 M) were added to 1.00 ml of each BQ (5×10^−6 M) in Tris-KCl buffer, pH 7.4. Solution was shacked well after each addition, incubated for 3 min at room temperature and its absorbance was scanned in the range 200-600 nm. Titration was stopped when no change in absorbance was observed. The experiment was reversed by adding successive amounts of the each BQ (1×10^−3 M) to 1.0 ml of 4×10^−6 M G-quadruplex DNA.
The molar ratio method based on measuring UV-Vis absorption was used for determining stoichiometry of G-quadruplex DNA interactions with BQs. A 1.00 ml BQs (5×10^−6 M) was titrated with telomere G-quadruplex (1.44×10^−4 M) in Tris-KCl buffer, pH 7.4. […] A plot of absorbance versus molar ratio [BQs]/[DNA] was constructed. […]
where Af, A and Ab are the absorbance at zero addition, after each addition and at saturation, respectively. […]

[2] = system: prostate cancer cells (C42B); test: MTT cell viability assay, C42B; assay type: cell-based, human; details: for pIC50: Homo sapiens, 72 hrs; for loss of cell viability: 72 hours, BQs 1.0-25.0 μM, relative to control (DMSO)
Description: (§2) Human cancer cell lines were purchased from Hyclone Laboratories, Utah, USA. Pancreatic cancer cells (L3.6pl and MiaPaCa-2) and breast cancer cells (MCF-7) were maintained in DMEM while lung cancer cells (H1299) and prostate cancer cells (C42B) were maintained in RPMI 1640 media. All media were supplemented with antibiotics (penicillin 50 U/ml; streptomycin 50 μg/ml) and 10% fetal bovine serum (FBS, Biowest, Nouaille, France).
(§3) BQs were tested for their antiprolifrative activity in vitro using MTT assay on human pancreatic cancer cells (L3.6pl and MiaPaCa-2), human lung cancer cells (H1299), human breast cancer cells (MCF-7) and human prostate cancer cells (C42B).
(§4) The cell viability test was conducted by seeding pancreatic (L3.6pl and MiaPaCa-2), lung (H1299), breast (MCF-7) and prostate (C42B) cancer cells into 96-well culture plates at a density of 3×10^3 cells per well. Cells were then exposed to increasing doses (0-25 μM) of BQs for 72 hrs and MTT assay was performed using thymoquinone as a positive control in all experiments. The results were plotted as means±SD of at least three separate experiments using six determinations per experiment. Data were presented as proportional viability (%) by comparing the treated group with the untreated cells whose viability is assumed to be 100%. IC50s of the BQs were estimated from the linear plots of concentrations versus cell viabilities.

[3] = system: telomeric G-quadruplex DNA; test: Melting temperature curves by CD, G-quadruplex-BQs complexes; assay type: binding, human; details: for Tm of G-quadruplex-BQ complex / ΔTm of G-quadruplex-BQ complex: CD, equimolar BQ, Tris-KCl buffer pH 7.4; for selectivity towards G-quadruplex over ct-DNA: from differences between ΔTm (G-quadruplex) and ΔTm (ct-DNA)
Description: as §1, with “scan. Collected CD spectra were smoothed and baseline corrected against blank solution. Intensities of CD peaks for G-quadruplex, ct-DNA and their BQs' complexes at 293 and 282 nm were recorded. Plots of CD intensities versus temperature were constructed.” for “scan.”

[4] = system: pancreatic cancer cells (MiaPaCa-2); test: MTT cell viability assay, MiaPaCa-2; assay type: cell-based, human; details: for pIC50: Homo sapiens, MIA PaCa-2, MiaPaCa-2, 72 hrs
Description: as §2, §3, §4

[5] = system: lung cancer cells (H1299); test: MTT cell viability assay, H1299; assay type: cell-based, human; details: for inhibition in cell viability: H1299, 72 hours, BQs 1.0-25.0 μM, relative to control (DMSO)
Description: as §2, §3, §4

[6] = system: pancreatic cancer cells (L3.6pl); test: MTT cell viability assay, L3.6pl; assay type: cell-based, human
Description: as §2, §3, §4

[7] = system: breast cancer cells (MCF-7); test: MTT cell viability assay, MCF-7; assay type: cell-based, human; details: for loss of cell viability: MCF-7, 72 hours, BQs 1.0-25.0 μM, relative to control (DMSO)
Description: as §2, §3, §4

[8] = system: examined cancer cell lines; test: MTT cell viability assay, cell line not given (panel); assay type: cell-based; details: Homo sapiens; cell line not specified
Description: as §2, §3, §4

Question: Which “Melting temperature shift (ΔTm) of ct-DNA on BQ binding” value (ct-DNA (calf thymus DNA)) does the source give for `O=C1C=C(Nc2cccc(C(F)(F)F)c2)C(=O)C=C1Nc1cccc(C(F)(F)F)c1` [BQ1, 2,5-bis-(3-trifluoromethylanilino)-1,4-benzoquinone] here?
Answer: The value was 5.8 °C.

Question: And the “binding constant (K) towards G-quadruplex DNA” value [1]?
Answer: Its value is 728000 M⁻¹.

Question: And the melting point?
Answer: Its melting point is 280 to 282.5 °C.

Question: What about the pIC50 [2] of the same molecule?
Answer: The pIC50 was 4.36.

Question: And the “Tm of G-quadruplex-BQ complex” value [3]?
Answer: The value was 75.5 °C.

Question: And the “ΔTm of G-quadruplex-BQ complex” value [3]?
Answer: The value was 7.5 °C.

Question: Which melting point does the source give for `O=C1C=C(Nc2cc(F)c(F)c(F)c2)C(=O)C=C1Nc1cc(F)c(F)c(F)c1` [BQ2, 2,5-bis-(3,4,5-trifluoroanilino)-1,4-benzoquinone] here?
Answer: Its melting point is > 350 °C.

Question: For `COc1ccc(NC2=CC(=O)C(Nc3ccc(OC)cc3)=CC2=O)cc1` [BQ3, 2,5-bis-(4-methoxylanilino)-1,4-benzoquinone], which “Melting temperature shift (ΔTm) of ct-DNA on BQ binding” value (ct-DNA (calf thymus DNA)) is on record?
Answer: The value was 3.8 °C.

Question: What about the melting point of the same molecule?
Answer: Its melting point is 323 to 325 °C.

Question: And the pIC50 [4]?
Answer: Its pIC50 is 5.11.

Question: And the “selectivity towards G-quadruplex over ct-DNA” value [3]?
Answer: Its value is “low selectivity”.

Question: What about the “ΔTm, G-quadruplex versus ct-DNA” value ([3]; stabilized both G-quadruplex and ct-DNA) of the same molecule?
Answer: The value was ~0.2 °C.

Question: Which results are given for `O=C1C=C(Nc2ccc(F)cc2)C(=O)C=C1Nc1ccc(F)cc1` [BQ4, 2,5-bis-(4-fluoroanilino)-1,4-benzoquinone]?
Answer: melting point: > 350 °C; pIC50 ([5]; Homo sapiens, NCI-H1299, H1299, 72 hrs): 5.13; Tm of G-quadruplex-BQ complex [3]: 68.1 °C; ΔTm of G-quadruplex-BQ complex [3]: 0.1 °C

Question: Which melting point does the source give for `O=C1C=C(Nc2ccccc2)C(=O)C=C1Nc1ccccc1` [BQ5, 2,5-bis-anilino-1,4-benzoquinone] here?
Answer: The melting point was 342 to 345 °C.

Question: What about the “loss of cell viability” value [2] of the same molecule?
Answer: Its value is 27.25%.

Question: And the pIC50 [2]?
Answer: The pIC50 was 4.38.

Question: What about the “selectivity towards G-quadruplex over ct-DNA” value ([3]; listed as BQS) of the same molecule?
Answer: The value was 3.5 folds.

Question: Which results are given for `O=C1C=C(NCCN2CCOCC2)C(=O)C=C1NCCN1CCOCC1` [BQ7, 2,5-bis((2-morpholinoethyl)amino)-1,4-benzoquinone]?
Answer: melting point: 184 to 188 °C; loss of cell viability [2]: 1.29%; inhibition in cell viability [5]: 20.81%; loss in cell viability ([4]; MiaPaCa-2, 72 hours, BQs 1.0-25.0 μM, relative to control (DMSO)): 7.53%

Question: For `O=C1C=C(NC2CCCC2)C(=O)C=C1NC1CCCC1` [BQ8, 2,5-bis-(cyclopentylamino)-1,4-benzoquinone], which “inhibition in cell viability” value ([6]; 72 hours, BQs 1.0-25.0 μM, relative to control (DMSO)) is on record?
Answer: The value was 26.97%.

Question: And the melting point?
Answer: Its melting point is 289 to 291 °C.

Question: With `O=C1C=C(NCCN2CCCC2)C(=O)C=C1NCCN1CCCC1` [BQ9, 2,5-bis((2-(pyrrolidin-1-yl)ethyl)amino)-1,4-benzoquinone] as the molecule, how does the “loss of cell viability” value [7] read?
Answer: The value was 92.50%.

Question: And the melting point?
Answer: Its melting point is 159 to 162 °C.

Question: And the “inhibition in cell viability” value [5]?
Answer: The value was 84.40%.

Question: What about the pIC50 [8] of the same molecule?
Answer: Its pIC50 is > 5.00.

Question: With `O=C1C=C(NCc2ccc(C(F)(F)F)cc2)C(=O)C=C1NCc1ccc(C(F)(F)F)cc1` [BQ10, 2,5-bis-(4-trifluoromethylbenzylamino)-1,4-benzoquinone] as the molecule, how does the pIC50 ([7]; Homo sapiens, MCF7, MCF-7, 72 hrs) read?
Answer: Its pIC50 is 5.09.

Question: What about the melting point of the same molecule?
Answer: The melting point was 271 to 274 °C.

Question: And the pIC50 [8]?
Answer: The pIC50 was > 5.00.

Question: With `O=C1C=C(NCc2ccc(F)cc2)C(=O)C=C1NCc1ccc(F)cc1` [BQ11, 2,5-bis-(4-fluorobenzylamino)-1,4-benzoquinone] as the molecule, how does the pIC50 ([6]; Homo sapiens, 72 hrs) read?
Answer: The pIC50 was 5.01.

Question: What about the melting point of the same molecule?
Answer: Its melting point is 248 to 250 °C.

Question: What about the pIC50 [8] of the same molecule?
Answer: The pIC50 was > 5.00.

Question: What about the pIC50 [4] of the same molecule?
Answer: Its pIC50 is 5.21.

Question: And the “Tm of G-quadruplex-BQ complex” value [3]?
Answer: The value was “lowest”.

Question: With `COc1ccc(CNC2=CC(=O)C(NCc3ccc(OC)c(OC)c3)=CC2=O)cc1OC` [BQ12, 2,5-bis-(3,4-dimethoxybenzylamino)-1,4-benzoquinone] as the molecule, how does the “loss of cell viability” value [7] read?
Answer: Its value is 24.16%.

Question: What about the melting point of the same molecule?
Answer: The melting point was 256.5 to 258.5 °C.

Question: For `O=C1C=C(NCc2ccccc2)C(=O)C=C1NCc1ccccc1` [BQ13, 2,5-bis-(benzylamino)-1,4-benzoquinone], which melting point is on record?
Answer: The melting point was 254.5 to 256 °C.

Question: Which melting point does the source give for `O=C1C=C(NCc2cc(C(F)(F)F)cc(C(F)(F)F)c2)C(=O)C=C1NCc1cc(C(F)(F)F)cc(C(F)(F)F)c1` [BQ14, 2,5-bis-(3,5-ditrifluoromethylbenzylamino)-1,4-benzoquinone] here?
Answer: Its melting point is 237 to 239 °C.
